We go through 2 compounds from BindingDB's records for doi:10.1021/acs.jmedchem.9b00068 (University of Michigan, 2019).

Experiment [1] addresses T1, Eukaryotic translation initiation factor 4E (Homo sapiens, UniProt P06730). As to the kind of experiment: Binding affinity to N-terminal 10His-tagged m7GDP-bound recombinant human eIF4E expressed in Escherichia coli BL21 (DE3) cells assessed as dissociation constant at 25 degreeC in presence 225 to 1000 mM of NaCl by surface plasmon resonance analysis.
The target in experiment [2] is T1, Eukaryotic translation initiation factor 4E. The experiment in a line: Binding affinity to N-terminal 10His-tagged m7GDP-bound recombinant human eIF4E expressed in Escherichia coli BL21 (DE3) cells assessed as dissociation constant at 25 degreeC by surface plasmon resonance analysis.

T1 sequence (P06730 whole entry): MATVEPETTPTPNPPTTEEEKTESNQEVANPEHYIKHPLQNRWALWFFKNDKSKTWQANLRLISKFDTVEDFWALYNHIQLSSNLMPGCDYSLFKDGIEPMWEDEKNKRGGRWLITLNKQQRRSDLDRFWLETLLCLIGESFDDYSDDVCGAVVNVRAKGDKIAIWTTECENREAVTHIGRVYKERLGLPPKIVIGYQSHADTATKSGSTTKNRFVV

For the compound `CC(=O)N[C@@H](CCCCN)C(=O)N[C@@H](CCCCN)C(=O)N[C@@H](CCCNC(=N)N)C(=O)N[C@@H](Cc1ccc(O)cc1)C(=O)N[C@@H](CC(=O)O)C(=O)N[C@@H](CCCNC(=N)N)C(=O)N[C@@H](CCC(=O)O)C(=O)N[C@@H](Cc1ccccc1)C(=O)N[C@@H](CC(C)C)C(=O)N[C@@H](CC(C)C)C(=O)NCC(=O)N[C@@H](Cc1ccccc1)C(=O)N[C@@H](CCC(N)=O)C(=O)N[C@@H](Cc1ccccc1)C(N)=O`, the dissociation constant (Kd) in experiment [1] came out at 0.046 nM. In the case of Ac-KKRYSREQLLGL-NH2, the dissociation constant (Kd) in experiment [2] stood at 123 nM.
